PMC4238264, “A Lectin from Dioclea violacea Interacts with Midgut Surface of Lutzomyia migonei, Unlike Its Homologues, Cratylia floribunda Lectin and Canavalia gladiata Lectin” (The Scientific World Journal, 2014)

Molecular target: T1, Dioclea violacea lectin (DVL) (Macropsychanthus violaceus, UniProt I1SB09)
T1 sequence (I1SB09 1-237): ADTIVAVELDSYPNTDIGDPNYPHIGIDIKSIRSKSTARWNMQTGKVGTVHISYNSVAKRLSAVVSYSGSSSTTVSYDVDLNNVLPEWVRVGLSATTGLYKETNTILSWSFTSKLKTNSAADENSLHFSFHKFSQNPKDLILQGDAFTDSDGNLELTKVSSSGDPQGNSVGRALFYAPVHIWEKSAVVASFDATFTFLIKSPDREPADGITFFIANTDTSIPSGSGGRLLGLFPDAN
Test: fluorescence microscopy of FITC-lectin binding to fixed Lutzomyia migonei midgut, lectin blocked with sugar
Settings: 0.1 M D-mannose, 37 °C, 30 min preincubation; carbohydrate recognition domain; FITC-labelled lectin 100 µg/mL

OC[C@H]1OC(O)[C@@H](O)[C@@H](O)[C@@H]1O (stereo partly drawn) [D-mannose]
fluorescence microscopy of FITC-lectin binding to fixed Lutzomyia migonei midgut: when the midguts were treated with blocked DVL, a remarkable decrease in the fluorescence pattern
